Data as given in patent US12667122B2, “Taste-modulation of cooling agents in beverages” (priority 2019, dated 2026).

What was measured:
[1] = Beverage swallowing test: duration of cooling in throat and chest and adverse taste ranking; format: in vivo, human; conditions: for Duration of Cooling: 0.4 mg/mL in Monk fruit sweetened water (1 pack Splenda Monk Fruit per 100 mL), 30 mL, throat; for Dose sufficient for a robust, immediate cooling response: in 15 mL
[2] = as above; format: in vivo, human; conditions: for Onset of cooling action in the chest (in words): in vivo; for Duration of effects (in words): compared with the shorter DIPA analogs; for Duration Cool: 20 mg in 50 mL (0.4 mg/mL); for Min. (cooling): 50 mL beverage
From the text: DIPA compounds dissolved in water have an unpleasant, bitter, and metallic taste. The goal of the experiments was to find an adjunct that would make the DIPA beverage palatable. The anatomic sites for bitterness (adverse taste) are primarily on the dorsal surface of the posterior one-third of the tongue. The coolness and refreshment areas are on the hypopharynx and the upper one-third of the esophagus (FIG. 1). These are two different anatomic sites. Sensations of coolness from the oral cavity and oropharynx are not the primary targets. The esophagus is in the center of the thorax. When its lumen feels “cool,” this is like turning on the central air conditioner for the body. The goal of the beverage is to turn on this central air conditioning for at least 30 min and preferably longer without adverse tastes in the oral cavity. That is, the goal is to produce cool in the center of the chest but without bitter taste. A standard procedure was set. The cooling agent at various concentrations was made up to 50 mL with a liquid in a plastic cup (Flak Tek, Inc. South Carolina), beaker, whiskey glass, or bottle. For example, the final concentration of the coolant in the test solution may range from 0.1 to 0.5 mg/mL. The temperature of the liquid was measured and then swallowed. For example, 50 mL could be swallowed in five gulps or sipped. The duration of cooling in the throat and chest was recorded at various intervals until the cooling disappeared. The ranking of adverse taste was on a scale of 0 (no adverse taste), 1 (mild taste), 2 (moderate taste), or 3 (adverse taste). The value was for at least three trials per beverage.
Examples of test procedures and results. The usual method was to prepare a 2-mL vial containing a DIPA dissolved in water. The contents of the vial were added to beverages such as beer, soda drinks, fruit juice, coffee, tea, or water. A taste-modulating adjunct such as a sweetener can be in the 2-mL vial or present in the beverage. The drink is gulped at about 5 mL per swallow. The time and temperatures are noted. The onset of coolness in the center of the upper chest usually occurs within 3 min. For active compounds, this effect was pleasant and, depending on dose, could last for 10 minutes, an hour, or more. Gulping the liquid was important. When held in the mouth, the drink is cool and may have taste, but cooling in the center of the chest is reduced. Thus, sipping is not the correct method of drinking. Using these methods, a bottle of beer (e.g., ˜330 mL containing 33 mg of DIPA-1-9), if drank in a leisurely setting for one hour, can provide comfortable body cooling for 3 hr. Similarly, a smaller bottle of carbonated soda water (e.g., 200 mL), containing 15 mg of DIPA-1-6 produced immediate cooling relief for 30 min for individuals, for example, taking a break from playing tennis in the heat. For pharmaceutical uses, a tinted bottle with 20 mg of DIPA-1-9 in 50 mL of water with Splenda's Monk Fruit dissolved in it would be palatable and relieve the discomforts of indigestion.

[3] = Water solubility of 1-dialkylphosphorylalkanes; format: physicochemical
From the text: The DIPA compounds are colorless liquids with a density less than water. These structures differ from those described by Rowsell and Spring U.S. Pat. No. 4,070,496 because '496 structures have their “head” (phosphine oxide group) covered by larger, more lipophilic groups. […] The applicant synthesized these analogs (which are achiral, by contrast to the structures of '496, which are >95% chiral). […] This increased water-solubility is striking (Table 3). Additional details on the bioactivity and pharmacology of these DIPA can be found in the paper by Yang et al., [(2017). A novel TRPM8 agonist relieves dry eye discomfort. BMC Ophthalmology, 17(1). https://doi.org/10.1186/s12886-017-0495-2], incorporated herein by reference.

TRPM8 receptor = TRPM8 receptor (Homo sapiens, UniProt Q7Z2W7); assay: TRPM8 receptor agonist activity; format: cell-based
[4] = DIPA cooling on the effects of a hotpot meal; format: in vivo, human; conditions: 0.5 mg/mL in water containing 1 packet of Splenda's Monk Fruit sweetener per 200 mL
From the text: DIPA Cooling on the effects of a “hotpot” meal. A hotpot meal has been prevalent in central China (Sichuan province) for over a thousand years and has become very popular in many parts of Asia today. It is a family affair with a boiling pot of broth in the middle of the table, and everyone cooks food in the broth. Exceptionally spicy chili pepper is in the soup, and even in summer, the air-conditioning is off, so everybody sweats. The general idea is to get so hot that one becomes desensitized to the hot weather. […] Another method for relief from the hotpot is to incorporate it into a beer at DIPA-1-9 0.1 mg/ml, and commercialize it as “HotPot Beer.”

TRPA1 = molecular target: T1, TRPA1 (Homo sapiens, UniProt O75762); assay: Activation of TRPA1-transfected cells; format: cell-based
T1 construct: expressed in transfected cells

TRPV1 = molecular target: T2, TRPV1 (Homo sapiens, UniProt Q8NER1); assay: Activation of TRPV1-transfected cells; format: cell-based
T2 construct: expressed in transfected cells
T2 sequence (Q8NER1 whole entry): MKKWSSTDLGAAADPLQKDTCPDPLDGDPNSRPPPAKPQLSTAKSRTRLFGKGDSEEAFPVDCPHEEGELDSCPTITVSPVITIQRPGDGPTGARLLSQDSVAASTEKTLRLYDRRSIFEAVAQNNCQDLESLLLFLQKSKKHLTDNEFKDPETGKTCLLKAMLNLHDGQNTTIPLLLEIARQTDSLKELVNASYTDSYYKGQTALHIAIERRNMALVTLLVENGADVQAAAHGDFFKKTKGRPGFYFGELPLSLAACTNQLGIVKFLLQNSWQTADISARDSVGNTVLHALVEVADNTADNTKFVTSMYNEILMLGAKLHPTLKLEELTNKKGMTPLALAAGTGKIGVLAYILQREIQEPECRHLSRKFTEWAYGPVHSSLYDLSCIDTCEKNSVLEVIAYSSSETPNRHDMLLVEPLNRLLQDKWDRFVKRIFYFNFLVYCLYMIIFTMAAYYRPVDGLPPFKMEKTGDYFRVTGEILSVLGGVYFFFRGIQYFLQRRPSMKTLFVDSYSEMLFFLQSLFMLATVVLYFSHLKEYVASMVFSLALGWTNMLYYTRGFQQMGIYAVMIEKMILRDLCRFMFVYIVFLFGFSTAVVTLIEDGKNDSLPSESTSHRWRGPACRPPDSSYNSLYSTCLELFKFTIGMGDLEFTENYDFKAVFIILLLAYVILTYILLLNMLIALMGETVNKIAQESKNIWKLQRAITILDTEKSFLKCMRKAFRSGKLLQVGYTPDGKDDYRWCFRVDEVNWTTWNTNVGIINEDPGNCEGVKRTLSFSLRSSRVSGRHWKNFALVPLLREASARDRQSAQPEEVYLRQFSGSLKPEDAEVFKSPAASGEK

T1 sequence (O75762 whole entry): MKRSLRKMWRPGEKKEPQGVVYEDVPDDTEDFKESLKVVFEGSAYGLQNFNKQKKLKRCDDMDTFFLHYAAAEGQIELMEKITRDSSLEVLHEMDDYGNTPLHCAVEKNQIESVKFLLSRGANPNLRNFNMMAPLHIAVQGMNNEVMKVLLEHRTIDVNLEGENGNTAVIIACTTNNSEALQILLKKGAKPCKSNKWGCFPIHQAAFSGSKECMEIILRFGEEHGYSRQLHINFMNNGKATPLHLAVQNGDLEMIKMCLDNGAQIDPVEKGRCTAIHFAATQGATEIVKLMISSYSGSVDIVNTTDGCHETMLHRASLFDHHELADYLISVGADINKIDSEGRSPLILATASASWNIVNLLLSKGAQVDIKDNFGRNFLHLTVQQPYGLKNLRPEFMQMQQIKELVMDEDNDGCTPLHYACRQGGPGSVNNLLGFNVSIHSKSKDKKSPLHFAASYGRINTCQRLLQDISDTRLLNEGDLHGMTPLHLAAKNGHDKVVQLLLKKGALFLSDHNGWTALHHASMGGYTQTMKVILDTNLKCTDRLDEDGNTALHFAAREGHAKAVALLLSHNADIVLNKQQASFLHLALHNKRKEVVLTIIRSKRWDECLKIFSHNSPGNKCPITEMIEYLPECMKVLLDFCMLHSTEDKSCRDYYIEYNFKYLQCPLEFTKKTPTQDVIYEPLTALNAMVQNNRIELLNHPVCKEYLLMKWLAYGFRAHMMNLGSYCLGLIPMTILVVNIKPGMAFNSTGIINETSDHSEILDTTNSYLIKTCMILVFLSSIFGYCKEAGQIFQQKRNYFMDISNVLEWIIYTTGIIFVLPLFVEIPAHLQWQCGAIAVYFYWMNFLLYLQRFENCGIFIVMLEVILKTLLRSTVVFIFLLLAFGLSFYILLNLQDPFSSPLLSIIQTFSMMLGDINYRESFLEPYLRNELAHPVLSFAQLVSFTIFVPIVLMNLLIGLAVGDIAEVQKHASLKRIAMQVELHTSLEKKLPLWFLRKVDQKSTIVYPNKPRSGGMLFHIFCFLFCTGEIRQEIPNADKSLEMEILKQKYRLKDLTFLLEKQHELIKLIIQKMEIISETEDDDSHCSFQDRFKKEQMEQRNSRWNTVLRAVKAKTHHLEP
Chain of TRPM8 receptor (Q7Z2W7 whole entry): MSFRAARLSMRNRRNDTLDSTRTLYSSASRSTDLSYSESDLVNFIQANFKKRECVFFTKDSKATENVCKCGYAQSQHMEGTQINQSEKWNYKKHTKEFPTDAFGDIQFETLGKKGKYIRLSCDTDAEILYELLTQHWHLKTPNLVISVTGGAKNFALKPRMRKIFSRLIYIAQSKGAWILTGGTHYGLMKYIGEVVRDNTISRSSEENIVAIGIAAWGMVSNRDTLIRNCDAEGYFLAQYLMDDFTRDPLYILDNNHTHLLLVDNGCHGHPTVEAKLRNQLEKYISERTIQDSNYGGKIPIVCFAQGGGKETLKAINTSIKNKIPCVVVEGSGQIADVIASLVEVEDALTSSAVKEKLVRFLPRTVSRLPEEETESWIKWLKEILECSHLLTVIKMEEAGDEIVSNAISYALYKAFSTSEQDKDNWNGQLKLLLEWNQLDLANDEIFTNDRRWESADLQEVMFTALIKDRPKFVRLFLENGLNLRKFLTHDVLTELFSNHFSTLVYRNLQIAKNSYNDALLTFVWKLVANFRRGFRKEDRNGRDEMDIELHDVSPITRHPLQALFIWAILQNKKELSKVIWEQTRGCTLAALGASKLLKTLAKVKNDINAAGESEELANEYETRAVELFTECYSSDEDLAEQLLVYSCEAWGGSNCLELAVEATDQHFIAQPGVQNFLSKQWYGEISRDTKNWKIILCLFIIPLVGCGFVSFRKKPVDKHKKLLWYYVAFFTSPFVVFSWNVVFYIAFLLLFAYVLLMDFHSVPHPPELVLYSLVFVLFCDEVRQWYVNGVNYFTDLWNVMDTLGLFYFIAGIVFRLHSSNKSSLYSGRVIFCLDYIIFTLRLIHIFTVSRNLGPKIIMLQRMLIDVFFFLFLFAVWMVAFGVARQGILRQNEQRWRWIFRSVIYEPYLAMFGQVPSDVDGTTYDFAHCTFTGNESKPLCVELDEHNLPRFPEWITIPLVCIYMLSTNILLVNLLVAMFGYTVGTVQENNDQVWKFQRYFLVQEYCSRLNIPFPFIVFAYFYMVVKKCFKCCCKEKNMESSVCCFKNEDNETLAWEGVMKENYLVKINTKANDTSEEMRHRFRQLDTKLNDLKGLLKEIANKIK

Compound: CCCCCCCP(=O)(C(C)C)C(C)C [DIPA-1-7, 1-Di(isopropyl)-phosphinoyl-heptane]
- Duration of Cooling [1]: 36 min
- Onset of cooling action in the chest (in words) [2]: immediate

Compound: CCCCCP(=O)(C(C)CC)C(C)CC (centres unmarked) [di-sec-butyl- pentane]
- Water solubility [3]: 22 mg/mL

Compound: CCCCCCCCCCP(=O)(C(C)C)C(C)C [DIPA-1-10]
- Duration of Cooling [1]: 0 min
- EC50 (TRPM8 receptor): inactive
- Water solubility [3]: <3 mg/mL

Compound: CCCCCCP(=O)(C(C)C)C(C)C [DIPA-1-6, 1-Di(isopropyl)-phosphinoyl-hexane]
- Duration of Cooling [1]: 20 min
- Dose sufficient for a robust, immediate cooling response [1]: 10 mg
- Duration of immediate cooling relief ([2]; 200 mL carbonated soda water containing 15 mg): 30 min
- Onset of cooling action in the chest (in words) [2]: immediate

Compound: CCCCCP(=O)(C(C)C)C(C)C [DIPA-1-5, 1-Di(isopropyl)-phosphinoyl-pentane]
- Duration of Cooling [1]: 12 min
- Dose sufficient for a robust, immediate cooling response [1]: 10 mg
- Onset of cooling action in the chest (in words) [2]: immediate

Compound: CCCCCCCCP(=O)(C(C)C)C(C)C [DIPA-1-8, 1-Di(isopropyl)-phosphinoyl-octane]
- Duration of Cooling [1]: 43 min
- Duration of effects (in words) [2]: more long-lasting
- Effective dose ([2]; in a whiskey glass): 15 mg

Compound: CCCCCCCCCP(=O)(C(C)C)C(C)C [DIPA-1-9, 1-Diisopropyl-phosphinoyl-nonane]
- Duration of Cooling [1]: 48 min
- Onset of relief [4]: within several minutes
- Relief after a hotpot meal (in words) [4]: relieves the pain in the oral cavity and throat
- Activation of TRPA1-transfected cells (TRPA1): does not activate
- Activation of TRPV1-transfected cells (TRPV1): does not activate
- Duration ([2]; 0.4 mg/L, apple juice (Martinelli, Mott's), 21 °C): 34 min
- Duration ([2]; 0.4 mg/L, grape juice (Welch Grape), 20 °C): 35 min
- Duration ([2]; 0.4 mg/L, guarana juice soda (Guarana Antarctica), 10 °C): 40 min
- Duration ([2]; 0.4 mg/L, orange juice (fresh-squeezed), 8 °C): 40 min
- Duration ([2]; 0.4 mg/L, sweetened soda (Coca-Cola), 7 °C): 25 min
- Duration ([2]; 0.4 mg/L, wine (Moscato d'Asti), 8 °C): 36 min
- Duration ([2]; 0.4 mg/mL, hot cappuccino drink (3 Coracoes, Brazil), 70 °C): 30 min
- Duration ([2]; 0.4 mg/mL, hot coffee + herbal sweetener (117 + Stevia extracts), 75 °C): 36 min
- Duration ([2]; 0.4 mg/mL, hot coffee cream/sugar (117, Nescafe), 65 °C): 35 min
- Duration ([2]; 0.4 mg/mL, hot coffee-no cream or sugar (117, Nescafe), 62 °C): 30 min
- Duration ([2]; 0.4 mg/mL, hot water + monk fruit (Splenda monk fruit), 50 °C): 42 min
- Duration ([2]; 0.4 mg/mL, hot water + monk fruit (Splenda monk fruit), 70 °C): 38 min
- Duration ([2]; 0.4 mg/mL, iced cold cappuccino (Starbuck's frappaccino), 8 °C): 25 min
- Duration ([2]; 0.4 mg/mL, red tea (Peach-Ceylon, no sweetener), 46 °C): 31 min
- Duration ([2]; 0.4 mg/mL, sweetened tea (Ito En + 10% sucrose), 10 °C): 38 min
- Duration ([2]; 0.4 mg/mL, sweetened tea (Ito En + Truvia or Monk's Fruit), 10 °C): 40 min
- Duration ([2]; 0.4 mg/mL, unsweetened green tea (Ito En), 10 °C): 35 min
- Duration Cool ([2]; carbonated water (Perrier, La Croix), 8 °C): 45 min
- Duration Cool ([2]; water (Crystal Geyser), 10 °C): 48 min
- Duration Cool ([2]; water (Crystal Geyser), 25 °C): 42 min
- Duration Cool ([2]; water (Crystal Geyser), 74 °C): 45 min
- Duration Cool ([2]; water + herbal sweetener (+Stevia leaf), 8 °C): 40 min
- Duration Cool ([2]; water + herbal sweetener (+Stevia leaf), 22 °C): 35 min
- Duration Cool ([2]; water + herbal sweetener (+Stevia leaf), 72 °C): 32 min
- Duration Cool ([2]; water + synthetic sweetener (Neotame at 0.2 mg/mL), 10 °C): 40 min
- Min. (cooling) ([2]; 0.2 mg/mL + Stevia, 20 °C): 12 min
- Min. (cooling) ([2]; 0.4 mg/mL + Stevia, 20 °C): 35 min
- Min. (cooling) ([2]; 0.4 mg/mL + Sucrose (10%), 20 °C): 42 min
- Min. (cooling) ([2]; 0.8 mg/mL + Stevia, 20 °C): 55 min
- Min. (cooling) ([2]; 0.8 mg/mL + Sucrose (10%), 20 °C): 39 min
- Min. (cooling) ([2]; 0.8 mg/mL + Sucrose (15%), 20 °C): 45 min
- Duration ([2]; Sake (Japanese rice wine), 10 °C): 32 min
- Duration ([2]; beer (Heineken), 7 °C): 44 min
- Duration of comfortable body cooling ([2]; bottle of beer ~330 mL containing 33 mg, drunk over one hour): 3 h
- Duration of effects (in words) [2]: more long-lasting
- Duration ([2]; ginger ale (Canada Dry), 11 °C): 25 min
- Duration ([2]; ginger beer, juice (Q beer, Suja), 9 °C): 40 min
- Effective dose ([2]; in a standard beer bottle): 33 mg
- Duration ([2]; non-alcoholic beer (Heineken 00), 7 °C): 40 min
- Duration ([2]; tonic water with quinine (Schweppes), 7 °C): 42 min
- Duration ([2]; wheat ale (Blue Moon), 9 °C): 35 min
